Tested on: sickled blood cells (SS blood erythrocytes)
Test: In vitro anti-sickling activity, Emmel test on SS blood
Format: cell-based
Conditions: for Emmel Test Result: 2% sodium metabisulphite, 2 hours anaerobic, compounds diluted in NaCl 0.9%
Description: Blood samples were collected from “Centre de Medecine Mixte et d'Anémie SS” located in Kinshasa, Democratic Republic of Congo (DRC). The blood samples were first characterised by Hb electrophoresis on cellulose acetate gel, in order to confirm their SS nature, as previously reported by Mpiana et al., 2007^6. Confirmed SS blood samples were refrigerated at ˜4° C., and used for Emmel test.
A drop of physiological solution was put on a glass slide and a drop of SS blood was added on the physiological solution. One drop of 2% sodium metabisulphite solution was added on the slide glass which was hermetically covered using a cover glass with melted paraffin wax and kept covered for 2 hours in order to accelerate the sickling of the blood. After 2 hours in anaerobic conditions, the blood sample became deoxygenated and adopted sickle shape. Assay was observed under an optical microscope and the number of observed erythrocytes was determined using Thomas' cell (Courtejoie, J. and Hartaing, I, 1992)^7.
SS blood samples were contacted at different concentrations with diluted samples of the compounds (8), (9), (10), and (11) using physiological solution (NaCl 0.9%) as dilution solvent, according to Emmel's test procedure as reported above and optical measurements were taken.
Pictures were obtained with an optical microscope (motic). In order to convert the photonic micrograph image into a digital image, a Canon digital camera (Zoom X6) was used to digitize micrographs using Motic Images 200 version 1.3 software, on Windows XP. Thomas' cell was used to observe the number of erythrocytes. The results of the in vitro anti-sickling activity of betulinic acid (8), 3-acetoxybetulinic acid (11), oleanolic acid (9) and maslinic acid (10) are shown in Table 1.

Compound | Emmel Test Result | normalisation of sickled blood cells (Emmel test, in vitro)
C=C(C)[C@@H]1CC[C@]2(C(=O)O)CC[C@]3(C)[C@H](CC[C@@H]4[C@@]5(C)CC[C@H](O)C(C)(C)[C@@H]5CC[C@]43C)[C@@H]12 [DS/10/C/A, Betulinic acid] | +++ (+++ = >70% normalisation of sickled blood cells.) | –
C=C(C)[C@@H]1CC[C@]2(C(=O)O)CC[C@]3(C)[C@H](CC[C@@H]4[C@@]5(C)CC[C@H](OC(C)=O)C(C)(C)[C@@H]5CC[C@]43C)[C@@H]12 [DS/10/C/Ab, 3-acetoxybetulinic acid] | +++ (+++ = >70% normalisation of sickled blood cells.) | –
CC1(C)CC[C@]2(C(=O)O)CC[C@]3(C)C(=CC[C@@H]4[C@@]5(C)CC[C@H](O)C(C)(C)[C@@H]5CC[C@]43C)[C@@H]2C1 [DS/FS/1, Oleanolic acid] | + (+ = 10 to 50% normalisation of sickled blood cells.) | 10-50%
CC1(C)CC[C@]2(C(=O)O)CC[C@]3(C)C(=CC[C@@H]4[C@@]5(C)C[C@@H](O)[C@H](O)C(C)(C)[C@@H]5CC[C@]43C)[C@@H]2C1 [DS/FS/2, Maslinic acid] | +++ (+++ = >70% normalisation of sickled blood cells.) | –

— patent US8685469B2, “In vitro anti-sickling activity of betulinic acid, oleanolic acid and their derivatives” (University of KwaZulu-Natal, priority 2009, dated 2014)
